Results on six cell lines are retold here after the supplement of paper PMC10307832.

Test in all cases: relative viability (nuclei count vs DMSO), 5 days (fraction); higher = more cells survive
Compound in one test: CN1CCN(CC1)C2=CC(=C(C=C2)NC3=NC(=C(S3)C(=O)C4=C(C=CC=C4Cl)Cl)N)OC [XMD14-99]
An outline of the steps: (§1)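 In 1536-well plates, lung cancer cell lines rested overnight at 37 °C before five library-drug doses (not always all listed), √10 apart, were pinned onto vehicle-anchored plates. Nuclei were counted with MetaXpress from 4× Hoechst images taken after 5 days without medium change. Viability compares treated-well with vehicle-well nuclei as a median over plates, and plates needed control CV below 25% plus at least one doubling to pass.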

Compound in a further test: N[C@@H]1CCCN(c2c(/C=C3\SC(=O)NC3=O)cccc2-c2ccccc2)C1 [AZD1208]
An outline of the steps: as §1

Compound in the test “AZD1208 + Navitoclax”: N[C@@H]1CCCN(c2c(/C=C3\SC(=O)NC3=O)cccc2-c2ccccc2)C1 [AZD1208] + CC1(C)CCC(c2ccc(Cl)cc2)=C(CN2CCN(c3ccc(C(=O)NS(=O)(=O)c4ccc(N[C@H](CCN5CCOCC5)CSc5ccccc5)c(S(=O)(=O)C(F)(F)F)c4)cc3)CC2)C1 [Navitoclax] (partner 0.5 µM)
The essentials: (§2)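 Relative viability divides the nuclei count in treated wells by that in vehicle wells. Lung cancer cell lines were seeded in 1536-well plates, dosed by pin tool the next day, and fixed and stained after 5 days in one step with final 0.05% Triton X-100, 1% formaldehyde and 1 ug/ml Hoechst. Dosing was a single drug or a fixed anchor-drug dose plus five library-drug doses (not always all listed) in √10 steps, and values are medians of duplicate plates imaged at 4×.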

Compound in the test “XMD14-99 + Trametinib”: CN1CCN(CC1)C2=CC(=C(C=C2)NC3=NC(=C(S3)C(=O)C4=C(C=CC=C4Cl)Cl)N)OC [XMD14-99] + CC(=O)Nc1cccc(-n2c(=O)n(C3CC3)c(=O)c3c(Nc4ccc(I)cc4F)n(C)c(=O)c(C)c32)c1 [Trametinib] (partner 0.02 µM)
An outline of the steps:
as §2

On to NCI-H647, for which the relative viability in the test with XMD14-99 (0.08 µM) is 0.981; with XMD14-99 (0.8 µM), 0.99; with XMD14-99 (2.53 µM), 0.92; with XMD14-99 (8 µM), 0.819; in the test with AZD1208 (0.08 µM), 1.02; with AZD1208 (0.253 µM) it was 1.04. In addition, the relative viability in the test with AZD1208 (0.8 µM) came out at 0.891; with AZD1208 (2.53 µM), 0.892; in the test with AZD1208 (8 µM), 0.788; with AZD1208 + Navitoclax (first compound 0.08 µM) it was 0.934; with AZD1208 + Navitoclax (first compound 0.253 µM), 0.974; in the test with AZD1208 + Navitoclax (first compound 0.8 µM), 1.14. The relative viability with AZD1208 + Navitoclax (first compound 2.53 µM) amounted to 1.01; with AZD1208 + Navitoclax (first compound 8 µM) it was 0.801; in the test with XMD14-99 + Trametinib (first compound 0.08 µM) it was 0.456; in the test with XMD14-99 + Trametinib (first compound 0.8 µM) it was 0.495; with XMD14-99 + Trametinib (first compound 2.53 µM) it was 0.582; in the test with XMD14-99 + Trametinib (first compound 8 µM), 0.442.
Take NCI-H2347: the relative viability with XMD14-99 (0.08 µM) worked out at 1.04; in the test with XMD14-99 (0.8 µM), 1; with XMD14-99 (2.53 µM), 0.966; with XMD14-99 (8 µM) it was 0.637; with AZD1208 (0.08 µM), 1.02; in the test with AZD1208 (0.253 µM), 1.09. The relative viability with AZD1208 (0.8 µM) came out at 1; in the test with AZD1208 (2.53 µM), 0.951; with AZD1208 (8 µM), 1.08; in the test with AZD1208 + Navitoclax (first compound 0.08 µM), 0.917; in the test with AZD1208 + Navitoclax (first compound 0.253 µM), 0.94; with AZD1208 + Navitoclax (first compound 0.8 µM), 0.685. The relative viability in the test with AZD1208 + Navitoclax (first compound 2.53 µM) is 0.794; with AZD1208 + Navitoclax (first compound 8 µM), 0.716; with XMD14-99 + Trametinib (first compound 0.08 µM), 0.278; in the test with XMD14-99 + Trametinib (first compound 0.8 µM) it was 0.288; with XMD14-99 + Trametinib (first compound 2.53 µM) it was 0.304; in the test with XMD14-99 + Trametinib (first compound 8 µM), 0.269.
For the cell line LCLC-97TM1, the relative viability was found to be 0.982 with XMD14-99 (0.08 µM); 1 in the test with XMD14-99 (0.8 µM); 0.828 with XMD14-99 (2.53 µM); 0.571 in the test with XMD14-99 (8 µM); 0.95 with AZD1208 (0.08 µM); 0.885 with AZD1208 (0.253 µM). Besides, the relative viability with AZD1208 (0.8 µM) worked out at 0.813; with AZD1208 (2.53 µM), 0.852; in the test with AZD1208 (8 µM), 0.631; in the test with AZD1208 + Navitoclax (first compound 0.08 µM), 0.369; with AZD1208 + Navitoclax (first compound 0.253 µM), 0.271; with AZD1208 + Navitoclax (first compound 2.53 µM), 0.446. In addition, the relative viability in the test with AZD1208 + Navitoclax (first compound 8 µM) stood at 0.21; with XMD14-99 + Trametinib (first compound 0.08 µM) it was 0.172; with XMD14-99 + Trametinib (first compound 0.8 µM) it was 0.229; with XMD14-99 + Trametinib (first compound 2.53 µM), 0.208; with XMD14-99 + Trametinib (first compound 8 µM) it was 0.18.
As to EPLC-272H, the relative viability amounted to 1.09 in the test with XMD14-99 (0.08 µM); 0.998 with XMD14-99 (0.8 µM); 0.942 in the test with XMD14-99 (2.53 µM); 0.787 with XMD14-99 (8 µM); 0.983 in the test with AZD1208 (0.08 µM); 0.974 with AZD1208 (0.253 µM). Moreover, the relative viability with AZD1208 (0.8 µM) was 0.861; with AZD1208 (2.53 µM) it was 0.864; with AZD1208 (8 µM), 0.742; with AZD1208 + Navitoclax (first compound 0.08 µM) it was 1.08; with AZD1208 + Navitoclax (first compound 0.253 µM) it was 1.24; with AZD1208 + Navitoclax (first compound 0.8 µM), 1.08. Also, the relative viability in the test with AZD1208 + Navitoclax (first compound 2.53 µM) came out at 1.04; with AZD1208 + Navitoclax (first compound 8 µM), 0.897; in the test with XMD14-99 + Trametinib (first compound 0.08 µM), 0.274; in the test with XMD14-99 + Trametinib (first compound 0.8 µM) it was 0.265; with XMD14-99 + Trametinib (first compound 2.53 µM), 0.287; in the test with XMD14-99 + Trametinib (first compound 8 µM) it was 0.251.
As for NCI-H1915, the relative viability in the test with XMD14-99 (0.08 µM) came to 0.991; with XMD14-99 (0.8 µM), 0.958; with XMD14-99 (2.53 µM) it was 0.91; with XMD14-99 (8 µM) it was 0.796; in the test with AZD1208 (0.08 µM), 0.995; in the test with AZD1208 (0.253 µM), 1.06. Besides, the relative viability with AZD1208 (0.8 µM) worked out at 0.967; in the test with AZD1208 (2.53 µM), 0.875; with AZD1208 (8 µM) it was 0.979; with AZD1208 + Navitoclax (first compound 0.08 µM), 0.794; in the test with AZD1208 + Navitoclax (first compound 0.253 µM) it was 0.797; in the test with AZD1208 + Navitoclax (first compound 0.8 µM) it was 0.839. The relative viability came to 0.832 with AZD1208 + Navitoclax (first compound 2.53 µM); 0.825 with AZD1208 + Navitoclax (first compound 8 µM); 0.301 in the test with XMD14-99 + Trametinib (first compound 0.08 µM); 0.311 in the test with XMD14-99 + Trametinib (first compound 0.8 µM); 0.25 with XMD14-99 + Trametinib (first compound 2.53 µM); 0.224 with XMD14-99 + Trametinib (first compound 8 µM).
NCI-H3122: the relative viability stood at 1 in the test with XMD14-99 (0.08 µM); 0.995 in the test with XMD14-99 (0.8 µM); 0.892 with XMD14-99 (2.53 µM); 0.694 with XMD14-99 (8 µM); 0.994 with AZD1208 (0.08 µM); 0.996 with AZD1208 (0.253 µM). Further, the relative viability in the test with AZD1208 (0.8 µM) was determined as 0.932; with AZD1208 (2.53 µM) it was 1.04; in the test with AZD1208 (8 µM), 0.981; in the test with AZD1208 + Navitoclax (first compound 0.08 µM), 1.04; with AZD1208 + Navitoclax (first compound 0.253 µM), 1; with AZD1208 + Navitoclax (first compound 0.8 µM), 0.995. Besides, the relative viability was determined as 1.05 with AZD1208 + Navitoclax (first compound 2.53 µM); 1.08 in the test with AZD1208 + Navitoclax (first compound 8 µM); 0.261 with XMD14-99 + Trametinib (first compound 0.08 µM); 0.22 in the test with XMD14-99 + Trametinib (first compound 0.8 µM); 0.269 with XMD14-99 + Trametinib (first compound 2.53 µM); 0.22 in the test with XMD14-99 + Trametinib (first compound 8 µM).
